{"source": "patent US20010051602A1", "about": "“Methods for increasing ApoE levels for the treatment of neurodegenerative disease” (priority 1997, published 2001)", "key": {"β-amyloid protein (1-42)": {"tested_on": "β-amyloid protein (1-42)", "test": "clinical trial: CSF β-amyloid (1-42)", "assay_type": "in vivo, human", "details": "individual AD patient", "description": "(§1) Biological Markers: Additional biochemical markers included phenotyping of the patients ApoE and determining relative concentrations of tau protein, P-amyloid protein (1-42 and 1-40); and relative extent of lipid peroxidation.\n(§2) Tables 11 and 12 summarize the changes in total β-amyloid protein (1-40 and 1-42) at one month, as a percentage of the baseline values."}, "lipid peroxidation": {"tested_on": "lipid peroxidation", "test": "clinical trial: lipid peroxidation in the CSF (TBARS)", "assay_type": "in vivo, human", "description": "In order to assess the antioxidant properties of probucol we analyzed lipid peroxidation levels in the CSF of patients before and after one month of treatment with probucol (one month). In vitro lipid peroxidation was measured according to the method of Ohkawa et al. (Anal. Biochem., 95:351-358 (1979)) with some modifications. Briefly, cerebrospinal fluid samples from Alzheimer's disease patients were prepared in 20 volumes of phosphate buffer (pH=7) (95% N2, 5% CO2) with a Teflon homogenizer. After centrifugation (1000 g, 10 min., 2° C.), the supernatant was precipitated with trichloroacetic acid (72%) according to Brown et al. (Anal. Biochem., 189:136-139 (1989)). This procedure removed material such as non-lipid-derived malondialdehyde (MDA) that could interfere with lipid peroxidation measurement. After precipitation with trichloracetic acid and centrifugation (10000 g, 15 min., 2° C.), 100 μl of the supernatant containing human brain homogenates was used to measure MDA levels. These supernatants were incubated with 20 μl of SDS 10%, 150 μl of acetic acid 20% (pH 3.5), and 150 μl of thiobarbituric acid (TBA) (0.6% in 0.05 N NaOH) and heated at 100° C. for 60 min. This step was performed under a controlled atmosphere (95% N^2, 5% CO^2) in sealed vials to avoid formation of MDA during heating. At the end of the incubation, the reaction was stopped at 4° C. The MDA-TBA complex of TBARS (thiobarbituric acid reactive substances) was then extracted with 300 μl of butanol/pyridine (15:1) by strong shaking (for 30 sec.) followed by centrifugation (1000 g, 10 min., 4° C.)."}, "β-amyloid protein (1-40)": {"tested_on": "β-amyloid protein (1-40)", "test": "clinical trial: CSF total β-amyloid (1-40)", "assay_type": "in vivo, human", "description": "as §1, §2"}, "Alzheimer's disease [1]": {"tested_on": "Alzheimer's disease", "test": "clinical trial: ADAS-Cog (extended 117 point scale)", "assay_type": "in vivo, human", "description": "(§3) Neuropsychological Assessment: The Alzheimer's Disease Assessment Scale, Cognitive Part (ADAS-Cog) (see Rosen et al., Am. J. Psychiatr., 141:1356-1364 (1984)) was used as an objective neuropsychological measure. It consists of a battery of neuropsychological tests for different cognitive functions. The battery comes to a single score with a maximum of 70 points and is administered in about 45 minutes to patients. A 117 point extended scale version of this test was also used (see Table 5). The extended 117 pt. […] The scoring method for this modified ADAS-Cog test ranges from 0 (the lowest score) to 117 (the best possible score)."}, "plasma apolipoproteins": {"tested_on": "plasma apolipoproteins", "details": "cited from earlier work"}, "Alzheimer's disease [2]": {"tested_on": "Alzheimer's disease", "test": "clinical trial: Global Deterioration Scale", "assay_type": "in vivo, human", "set-up": "Global Deterioration Scale, 3 months / Global Deterioration Scale, 6 months / Global Deterioration Scale, 3 months, Average / Global Deterioration Scale, 6 months, Average: scale not given here", "description": "Neuropsychological Assessment: The Clinical Impression of Change (CIBIC-Plus) and the Global Deterioration Scale (GDS) were recorded at 3 and 6 months. The Clinical Impression of Change (CIBIC-Plus) consists of the holistic impression by the clinician of whether the patient has shown any change since baseline as rated on a seven point sale (marked, moderate, mild improvement, no change, or marked, moderate, mild decline). The Global Deterioration Scale rates clinically identifiable stages of dementia. […] The GDS test provides a description of the key features of AD progression. […] The GDS is calculated as the average of scores related to the performance in the following areas of attention and concentration, recent memory, past memory, orientation, and functioning and self care."}, "Tau protein": {"tested_on": "Tau protein", "test": "clinical trial: Tau protein in the CSF", "assay_type": "in vivo, human", "description": "as §1"}, "Alzheimer's disease [3]": {"tested_on": "Alzheimer's disease", "test": "clinical trial: ADAS-Cog (70 point scale)", "assay_type": "in vivo, human", "description": "as §3, with “5).” for “5). The extended 117 pt.”, “ADAS includes both cognitive (ADAS-Cog) and non-cognitive (ADAS-Noncog) subscales and the tests components of memory, language, and behavior. […] We further assessed the cognitive functioning of these patients with the extended scale” for “scoring method for this modified”, “test.” for “test ranges from 0 (the lowest score) to 117 (the best possible score).”"}, "ApoE-knockout mice": {"tested_on": "ApoE-knockout mice", "test": "ApoE knockout mouse transient focal ischemia stroke model", "assay_type": "in vivo", "details": "5 mg i.p. daily for ten days, if ApoE induction is necessary for neuroprotection", "description": "To extend these animal studies, the ApoE knockout mouse may be exploited to assess the role of ApoE in probucol-mediated neuroprotection for stroke.\nThis protocol is carried out as similarly described for the rat model above, with some modifications. […] On the tenth day, animals are subjected to a transient focal ischemia by intraluminal occlusion of the middle cerebral artery. Infarct volume, neurological outcome, and cerebral flow will be monitored."}, "[4]": {"details": "average of patients, baseline average 66.8"}, "[5]": {"details": "individual AD patient, 117 is the best possible score"}, "[6]": {"details": "average of patients, baseline average 4.7"}, "[7]": {"details": "average of patients, baseline average 28.9"}, "[8]": {"details": "individual AD patient, higher score indicates poorer performance"}}, "note": "Values joined by “and” are separate entries in the source; they are usually repeats but may differ in a detail not shown here. Identical values can stand only once.", "data": [{"smiles": "CC(C)(Sc1cc(C(C)(C)C)c(O)c(C(C)(C)C)c1)Sc1cc(C(C)(C)C)c(O)c(C(C)(C)C)c1", "note": "[probucol]", "values": [{"measurement": "[β amyloid 1-42] in the CSF, % change", "setting": "β-amyloid protein (1-42); 1 month as a percentage of the baseline value", "result": "242% and 142% (2×) and 56% and 195% and 624% and 2144%"}, {"measurement": "[β amyloid 1-42] in the CSF, 1 month", "setting": "β-amyloid protein (1-42); average of triplicate assays", "result": "2.48 and 3.92 and 0.76 and 1.78 and 2.15 and 0.31 and 1.06 and 1.29"}, {"measurement": "Lipid Peroxidation, Change (% Baseline), average", "setting": "lipid peroxidation; 1 month, average for eight patients", "result": 100.9, "unit": "% Baseline"}, {"measurement": "Lipid Peroxidation, Change (% baseline)", "setting": "lipid peroxidation; 1 month, individual AD patient", "result": "100.3 % baseline and 97.4 % baseline and 94.8 % baseline and 97.5 % baseline and 104.2 % baseline and 92.8 % baseline and 103.8 % baseline and 116.1 % baseline"}, {"measurement": "Lipid Peroxidation, 1 month", "setting": "lipid peroxidation; individual AD patient, average of 4-6 determinations", "result": "0.705 Fluorescence Units and 0.686 Fluorescence Units and 0.687 Fluorescence Units and 0.692 Fluorescence Units and 0.744 Fluorescence Units and 0.691 Fluorescence Units and 0.731 Fluorescence Units and 0.824 Fluorescence Units"}, {"measurement": "[β amyloid 1-40] in the CSF, % change", "setting": "β-amyloid protein (1-40); 1 month as a percentage of the baseline value, individual AD patient", "result": "345% and 108% and 100% and 241% and 105% and 107% and 979% and 2157%"}, {"measurement": "[β amyloid 1-40] in the CSF, 1 month", "setting": "β-amyloid protein (1-40); individual AD patient, average of triplicate assays", "result": "3.44 and 3.95 and 4.96 and 7.55 and 3.26 and 3.51 and 5.35 and 2.16"}, {"measurement": "levels of β-amyloid in the CSF", "setting": "β-amyloid protein (1-40); one month of treatment, Alzheimer's patients, β-amyloid 1-40 and 1-42", "result": "overall increase"}, {"measurement": "ADAS-Cog (117 point scale) score, 3 months, Average", "setting": "Alzheimer's disease [1]; [4]", "result": 65.6}, {"measurement": "ADAS-Cog (117 point scale) score, 6 months, Average", "setting": "Alzheimer's disease [1]; [4]", "result": 68.1}, {"measurement": "ADAS-Cog (117 point scale) score, 3 months", "setting": "Alzheimer's disease [1]; [5]", "result": "73 (2×) and 51 and 63 (3×) and 83 and 56"}, {"measurement": "ADAS-Cog (117 point scale) score, 6 months", "setting": "Alzheimer's disease [1]; [5]", "result": "74 and 49 and 82 (2×) and 63 and 58 and 72 and 65"}, {"measurement": "number of patients that appeared to stabilize or improve, ADAS-Cog (117 point scale)", "setting": "Alzheimer's disease [1]; six month treatment, eight patients", "result": "five"}, {"measurement": "total plasma apoB, apoA-1, apoA-II, apoC-II and apoC-III", "setting": "plasma apolipoproteins; human, in vivo", "result": "lower"}, {"measurement": "circulating ApoE levels", "setting": "plasma apolipoproteins; probucol-treated hypercholesterolemic patients", "result": "increased"}, {"measurement": "effectiveness in subjects with apoE2/2 genotype", "setting": "plasma apolipoproteins; subjects with a very high physiological concentration of ApoE", "result": "totally uneffective"}, {"measurement": "patient symptoms on the Global Deterioration Scale", "setting": "Alzheimer's disease [2]; at three and six months", "result": "relative stabilization"}, {"measurement": "Global Deterioration Scale, 3 months, Average", "setting": "Alzheimer's disease [2]; [6]", "result": 4.8}, {"measurement": "Global Deterioration Scale, 6 months, Average", "setting": "Alzheimer's disease [2]; [6]", "result": 5.3}, {"measurement": "Global Deterioration Scale, 3 months", "setting": "Alzheimer's disease [2]; individual AD patient", "result": "5 (2×) and 7 and 5.5 and 4.5 and 1.5 and 8 and 3.25 and 3.5"}, {"measurement": "Global Deterioration Scale, 6 months", "setting": "Alzheimer's disease [2]; individual AD patient", "result": "6.5 and 7 and 5 and 6 and 1 and 8 and 3.5 and 5.5"}, {"measurement": "Tau concentration in the CSF, % change", "setting": "Tau protein; 1 month relative to baseline, individual AD patient", "result": "93% and 109% and 97% and 92% and 102% and 113% and 94% and 131% and 99%"}, {"measurement": "Tau concentration in the CSF, 1 month", "setting": "Tau protein; individual AD patient", "result": "188 and 1099 and 251 and 1070 and 458 and 1120 and 394 and 916 and 620"}, {"measurement": "effect on Tau levels in the CSF, as a group", "setting": "Tau protein; one month relative to baseline", "result": "no effect"}, {"measurement": "ADAS-Cog (70 point scale) score, 3 months, Average", "setting": "Alzheimer's disease [3]; [7]", "result": 29.5}, {"measurement": "ADAS-Cog (70 point scale) score, 6 months, Average", "setting": "Alzheimer's disease [3]; [7]", "result": 30.13}, {"measurement": "ADAS-Cog (70 point scale) score, 3 months", "setting": "Alzheimer's disease [3]; [8]", "result": "37 and 41 and 22 and 18 and 27 and 29 and 34 and 28"}, {"measurement": "ADAS-Cog (70 point scale) score, 6 months", "setting": "Alzheimer's disease [3]; [8]", "result": "40 (2×) and 44 and 16 and 17 and 25 and 36 and 23"}, {"measurement": "benefit in ApoE-knockout animals", "setting": "ApoE-knockout mice", "result": "little or no benefit"}]}]}
